Test: Toxicity in chick embryo measured per egg after 4 days
Design: species or system Gallus gallus
Settings: chicken, 96 h

Question: For `CC1=C[C@@H]2OC[C@]3(O)C(=O)CC[C@]3(C)[C@@]2(C)C[C@H]1O`, which LD50 is on record?
Answer: > 10 µg

Question: With `CC1=C[C@@H]2OC[C@]3(O)C(=O)CC[C@]3(C)[C@@]2(C)C[C@@H]1O` as the compound, how does the LD50 read?
Answer: > 10 µg
